In article PMC10793101 (Acta Pharmaceutica Sinica. B, 2023):
Blank lines part the entries; values can stand above or below the molecule they belong to.

Key:
TFEB [1] = molecular target: T1, TFEB (Homo sapiens, UniProt P19484); assay: GFP-TFEB nuclear translocation validation by confocal microscopy in AML12 cells; format: cell-based, mouse; details: stably expressing pEGFP-N1-TFEB AML12 cells, 24 h, vs control
T1 sequence (P19484 1-476): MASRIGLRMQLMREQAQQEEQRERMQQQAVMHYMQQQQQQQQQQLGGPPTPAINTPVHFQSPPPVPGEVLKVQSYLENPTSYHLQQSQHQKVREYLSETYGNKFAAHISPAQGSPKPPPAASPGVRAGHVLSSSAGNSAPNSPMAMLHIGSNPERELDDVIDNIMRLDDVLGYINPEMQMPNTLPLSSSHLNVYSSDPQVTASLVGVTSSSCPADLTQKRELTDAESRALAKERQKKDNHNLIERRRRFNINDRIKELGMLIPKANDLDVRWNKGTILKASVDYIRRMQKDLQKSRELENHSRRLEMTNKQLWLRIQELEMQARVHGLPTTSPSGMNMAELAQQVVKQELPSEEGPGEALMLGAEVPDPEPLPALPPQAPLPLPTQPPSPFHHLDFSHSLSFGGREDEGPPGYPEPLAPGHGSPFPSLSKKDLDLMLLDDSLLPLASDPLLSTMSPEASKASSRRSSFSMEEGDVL

[2] = test system: APAP-induced liver injury (AILI); details: cited from earlier work
TFEB [3] = molecular target: T1, TFEB; assay: GFP-TFEB nuclear translocation assay in qHTS format; format: cell-based, mouse
TFEB [4] = assay: qPCR of TFEB target genes in AML12 cells; format: cell-based, mouse; details: qPCR normalized to 18s
TFEB [5] = assay: TFEB promoter-driven luciferase reporter assay in AML12 cells; format: cell-based, mouse; details: AML12 cells transfected with pGL3-TFEB-Luc, 24 h treatment
[6] = test system: APAP-induced liver injury (AILI); assay: Protection against APAP overdose-induced liver injury in mice; format: in vivo, mouse
[7] = salinomycin 5 mg/kg i.p. with APAP 500 mg/kg i.p., 6 and 24 h

- nuclear translocation of TFEB (TFEB [1]): significantly increased
Compound: CCC(=O)N1CCN(c2ccc(-n3c(=O)ccc4cnc5ccc(-c6cnc7ccccc7c6)cc5c43)cc2C(F)(F)F)CC1 [Torin1, Torin 1]

Compound: CCN(CC)CCNC(=O)c1c(C)[nH]c(/C=C2\C(=O)Nc3ccc(F)cc32)c1C [Sunitinib]
- effect on AILI at high dose ([2]; high dose): increases AILI
- effect on AILI at low dose ([2]; low dose): mild hepatoprotective effect

Compound: CC[C@@H](C(=O)[C@@H](C)[C@@H](O)[C@H](C)[C@@H]1O[C@@H]([C@@H](CC)C(=O)O)CC[C@@H]1C)[C@H]1O[C@]2(C=C[C@@H](O)[C@]3(CC[C@@](C)([C@H]4CC[C@](O)(CC)[C@H](C)O4)O3)O2)[C@H](C)C[C@@H]1C [Salinomycin]
- EC50 (TFEB [3]): 2640 nM
- mRNA levels of TFEB target genes (Tfeb, Sqstm1, Ppargc1a, Lamp1, Vatp6v1d, Vatp6v1h, Pparα) (TFEB [4]): increased
- TFEB promoter driven luciferase activity (TFEB [5]): significantly increased
- nuclear translocation of TFEB (TFEB [1]): significantly increased
- hepatic levels of APAP-protein adducts ([6]; APAP-treated mice with or without salinomycin): similar
- serum levels of APAP-adducts ([6]; APAP-treated mice with salinomycin): markedly decreased
- hepatic protein levels of CYP2E1 ([6]; immunoblotting, salinomycin 5 mg/kg i.p.): did not change
- hepatic TFEB levels ([6]; immunoblotting, salinomycin with APAP vs APAP): partially recovered
- levels of phosphorylated JNK ([6]; liver, co-treatment of salinomycin after APAP overdose): reduced
- areas of centrilobular necrosis (H&E and TUNEL staining) ([6]; salinomycin 5 mg/kg i.p. with APAP 500 mg/kg i.p.): almost completely abolished
- serum ALT levels [6, 7]: markedly decreased
- serum AST levels [6, 7]: markedly decreased

Compound: C[C@@H]1O[C@@H](OC[C@H]2O[C@@H](Oc3cc(O)c4c(c3)O[C@H](c3ccc(O)cc3)CC4=O)[C@H](O)[C@@H](O)[C@@H]2O)[C@H](O)[C@H](O)[C@H]1O [Narirutin]
- hepatic APAP-adducts and AILI ([2]; mice, by activating TFEB via enhanced calcineurin activity): decrease

- levels of hepatic GSH (mouse livers; APAP 0.5, 2 and 6 h, recovered at 24 h): significantly decreased
- mRNA levels of TFEB targeted genes in liver (mouse livers; APAP 500 mg/kg, 6 h, vs saline): significantly lower
- levels of hepatic CYP2E1 (mouse livers; APAP-treated WT mouse livers vs saline-treated WT): ~2 fold
Compound: CC(=O)Nc1ccc(O)cc1 [APAP, Acetaminophen]
- serum alanine aminotransferase (ALT) levels (mouse livers; APAP 500 mg/kg i.p., 6 or 24 h, vs saline): significantly increased
